Experimental data: patent publication EP4778929A1, “NOVEL TYPE I TOPOISOMERASE INHIBITOR, AND PREPARATION METHOD THEREFOR AND USE THEREOF” (priority 2023, dated 2025)
Where two headings read alike, the source gives them in different places.

Experiments:
[1] = molecular target: T1, topoisomerase I (Topo I) (Homo sapiens, UniProt P11387); experiment: Topo I enzyme-inhibitory activity by agarose-gel electrophoresis (plasmid relaxation); assay type: biochemical
T1 sequence (P11387 1-765): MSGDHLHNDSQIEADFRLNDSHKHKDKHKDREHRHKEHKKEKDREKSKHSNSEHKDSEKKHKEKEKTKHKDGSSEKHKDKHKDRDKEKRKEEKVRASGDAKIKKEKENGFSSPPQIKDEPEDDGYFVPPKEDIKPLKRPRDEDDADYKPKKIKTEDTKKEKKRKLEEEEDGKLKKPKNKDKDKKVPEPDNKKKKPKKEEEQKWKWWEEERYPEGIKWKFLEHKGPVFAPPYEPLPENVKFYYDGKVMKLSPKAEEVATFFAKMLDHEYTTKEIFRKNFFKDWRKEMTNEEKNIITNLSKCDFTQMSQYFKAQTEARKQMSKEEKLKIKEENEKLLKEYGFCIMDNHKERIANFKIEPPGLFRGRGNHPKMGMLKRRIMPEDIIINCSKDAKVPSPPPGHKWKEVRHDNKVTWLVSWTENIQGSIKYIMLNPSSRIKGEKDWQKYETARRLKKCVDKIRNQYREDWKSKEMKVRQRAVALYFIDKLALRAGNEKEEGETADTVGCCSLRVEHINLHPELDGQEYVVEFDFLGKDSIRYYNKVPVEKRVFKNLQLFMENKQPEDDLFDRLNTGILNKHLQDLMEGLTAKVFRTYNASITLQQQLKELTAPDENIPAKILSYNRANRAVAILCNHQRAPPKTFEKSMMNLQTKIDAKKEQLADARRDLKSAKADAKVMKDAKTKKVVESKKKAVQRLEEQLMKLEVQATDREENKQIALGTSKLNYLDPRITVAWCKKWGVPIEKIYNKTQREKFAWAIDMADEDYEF
Description: Test Example 1. Determination of Topo I Enzyme-Inhibitory Activity by Agarose-Gel Electrophoresis
Principle: Type-I topoisomerase (Topo I) relaxes positive and negative supercoils by introducing transient single-strand breaks and forming reversible cleavage complexes (Topo I-DNA covalent complexes). Gel electrophoresis can resolve DNA species of identical molecular weight but different topology: supercoiled plasmid migrates fastest, whereas the nicked, relaxed form moves more slowly. Quantifying the decrease in supercoiled DNA therefore provides a direct measure of Topo I activity.
Experimental Procedure: A 1× reaction buffer was prepared (20 mM Tris-HCl pH 7.5, 200 mM NaCl, 0.25 mM EDTA, 5 % (v/v) glycerol, 0.5 µg pNO1 plasmid substrate). Test compounds (5 % DMSO final) were added to the buffer, followed by Topo I enzyme (0.75 U per reaction). After gentle mixing, reactions were incubated at 37 °C for 30 min. Positive (enzyme + vehicle) and negative (no enzyme) controls were included in parallel. Reactions were terminated by adding STEB buffer and chloroform/iso-amyl alcohol (24:1, v/v), vortexed and centrifuged for 2 min. The aqueous (upper) phase was loaded onto a 1 % (w/v) agarose gel, electrophoresed for 1-2 h, stained with GelRed, and imaged under UV trans-illumination.
Data Analysis: Band intensities of supercoiled DNA were quantified with image-analysis software. Relaxation activity (%) was calculated as (Max-Sample)/ (Max-Min)*100%, where Max = intensity of the no-enzyme negative control, Min = intensity of the vehicle-only positive control, and Sample = intensity of the compound-treated lane. Dose-response data (compound concentration, X; relaxation activity %, Y) were fitted in Excel or GraphPad Prism 5.0 using the four-parameter logistic equation: Y=Bottom + (Top-Bottom)/(1+(IC50/X)[…]) to derive the IC50 value for each compound.
Table 1. Compound-mediated inhibition of topoisomerase I (Topo I) enzymatic activity

[2] = tested on: HCT116 cells; experiment: Inhibition of cell proliferation by CTG (CellTiter-Glo) luminescence assay; assay type: cell-based; settings: Homo sapiens, read-out: HCT116, IC50
Description: Test Example 2. Determination of Compound-Mediated Inhibition of Cell Proliferation by CTG (CellTiter-Glo) Luminescence Assay
Principle: The Promega CellTiter-Glo™ luciferase reagent was used. Luciferase consumes ATP to generate light; metabolically active cells continuously produce ATP through respiration and other processes. After adding an equal volume of CellTiter-Glo™ reagent to the culture medium, the resulting luminescence is directly proportional to the ATP content, which in turn correlates with the number of viable cells. Thus, the assay quantifies compound-induced suppression of cell proliferation.
Experimental Procedure: HCT116 cells (ATCC) were revived in complete medium (McCoy's 5a + 10 % FBS). After two passages, exponentially growing cells were harvested, counted, and resuspended to the appropriate density. A 100 µL aliquot of cell suspension (2 000 cells per well) was seeded into 96-well plates and incubated overnight (37 °C, 5 % CO2, 100 % relative humidity). Test compounds were dissolved in DMSO to prepare 10 mM stock solutions and serially diluted 1:3 in DMSO to generate nine concentration steps. Each DMSO solution was further diluted 200-fold into medium; 25 µL of the resulting solutions were added to the cell plates (final DMSO concentration […]). After 72 h incubation (37 °C, 5 % CO2), 50 µL of CellTiter-Glo reagent was added per well. Plates were shaken gently, incubated for 30 min at room temperature in the dark, and luminescence was read on an EnVision multimode reader. Percent inhibition was calculated as: Inhibition % = (1−As/Ac) × 100, [formula] where As = signal from compound-treated wells and Ac = signal from DMSO-only control wells. Concentration-response data were fitted in Excel with the XLfit add-in using the four-parameter logistic equation: Y = Bottom + (Top−Bottom)/[1+((IC50/X))^(∧)HillSlope], [formula] to derive the IC50 value for each compound. Table 2. IC50 of compounds

[3] = 0.75 U Topo I, pNO1 plasmid, 37 °C, 30 min; compounds listed by group (Group A / Group B); read-out: inhibition of topoisomerase I (Topo I) enzymatic activity, IC50
[4] = HCT-116, 72 h incubation, CellTiter-Glo
[5] = read-out: inhibition of topoisomerase I (Topo I) enzymatic activity, IC50; 0.75 U Topo I, pNO1 plasmid, 37 °C, 30 min; compounds listed by group (Group A / Group B)

`CC[C@@]1(O)C(=O)OCc2c1cc1n(c2=O)Cc2c-1c(=O)c1ccccc1n2C` [Example 1, (S)-4-ethyl-4-hydroxy-11-methyl-1,12-dihydro-14H-pyrano[3,4:6,7]indolizino[2,1 - b]quinoline-3,6,14(4H,11H)-trione] gave an IC50 [1, 3] of under 200 nM and an IC50 [2, 4] of under 20 nM.
`CC[C@@]1(O)C(=O)OCc2c1cc1n(c2=O)Cc2c-1c(=O)c1cc(F)c(F)cc1n2C` [Example 5, (S)-4-ethyl-8,9-difluoro-4-hydroxy-11-methyl-1,12-dihydro-14H-pyrano[3',4':6,7]indolizino[2,1-b]quinoline-3,6,14(4H,11H)-trione] showed an IC50 [1, 3] of under 200 nM and an IC50 [2, 4] of under 20 nM.
Work on `CC[C@@]1(O)C(=O)OCc2c1cc1n(c2=O)Cc2c-1c(=O)c1cc(F)ccc1n2C` [Example 6, (S)-4-ethyl-8-fluoro-4-hydroxy-11-methyl-1,12-dihydro-14H-pyrano[3',4':6,7]indazino[2,1-b]quinoline-3,6,14(4H,11H)-trione] yielded an IC50 [1, 3] of under 200 nM and an IC50 [2, 4] of under 20 nM.
For `CC[C@@]1(O)C(=O)OCc2c1cc1n(c2=O)Cc2c-1c(=O)c1cc(F)cc(OC)c1n2C` [Example 10, (S)-4-ethyl-8-fluoro-4-hydroxy-10-methoxy-11-methyl-1,12-dihydro-14H-pyrano[3,4:6,7]indolizino[2,1-b]quinoline-3,6,14 (4H,11H)-trione], the IC50 [1, 5] was under 200 nM and the IC50 ([2]; HCT-116, 72 h) was under 20 nM.
`CC[C@@]1(O)C(=O)OCc2c1cc1n(c2=O)Cc2c-1c(=O)c1cc(F)cnc1n2C` [Example 19, (S)-7-ethyl-3-fluoro-7-hydroxy-14-methyl-10,14-dihydro-11H-pyrano[3',4':6,7]indolizino[2,1-b][1,8]diazepine-5,8,11(7H,13H)-trione] gave an IC50 [1, 5] of 200 to 500 nM and an IC50 ([2]; HCT-116, 72 h) of under 20 nM.
`CCOCCc1cc(F)cc2c(=O)c3c(n(C)c12)Cn1c-3cc2c(c1=O)COC(=O)[C@]2(O)CC` [Example 23, (S)-10-(2-ethoxyethyl)-4-ethyl-8-fluoro-4-hydroxy-11-methyl-1,12-dihydro-14H-pyrano[3,4:6,7]indolizino[2,1-b]quinoline-3,6,14 (4H,11H)-trione] gave an IC50 [1, 5] of 200 to 500 nM and an IC50 ([2]; HCT-116, 72 h) of under 20 nM.
`CC[C@@]1(O)C(=O)OCc2c1cc1n(c2=O)Cc2c-1c(=O)c1cc(F)cc(F)c1n2C` [Example 24, (S)-4-ethyl-8,10-difluoro-4-hydroxy-11-methyl-1,12-dihydro-14H-pyrano[3,4:6,7]indolizino[2,1-b]quinoline-3,6,14(4H,11H)-trione] was tested, and the IC50 [1, 5] was under 200 nM and the IC50 ([2]; HCT-116, 72 h) was under 20 nM.
`CC[C@@]1(O)C(=O)OCc2c1cc1n(c2=O)Cc2c-1c(=O)c1cc(F)ccc1n2C(C)C` [Example 36, (S)-4-ethyl-8-fluoro-4-hydroxy-11-isopropyl-1,12-dihydro-14H-pyrano[3',4':6,7]indolizino[2,1-b]quinoline-3,6,14(4H,11H)-trione] gave an IC50 [1, 5] of under 200 nM and an IC50 ([2]; HCT-116, 72 h) of under 20 nM.
With `CC[C@@]1(O)C(=O)OCc2c1cc1n(c2=O)Cc2c-1c(=O)c1cc(F)ccc1n2C1CC1` [Example 37, (S)-4-ethyl-8-fluoro-4-hydroxy-11-cyclopropyl-1,12-dihydro-14H-pyrano[3',4':6,7]indolizino[2,1-b]quinoline-3,6,14(4H,11H)-trione] the IC50 [1, 5] was under 200 nM and the IC50 ([2]; HCT-116, 72 h) was under 20 nM.
`CC[C@@]1(O)C(=O)OCc2c1cc1n(c2=S)Cc2c-1c(=O)c1cc(F)cc(C)c1n2C` [Example 39, (S)-4-ethyl-8-fluoro-4-hydroxy-10,11-dimethyl-14-thioxo-12,14-dihydro-1H-pyrano[3',4':6,7]indolizino[2,1-b]quinoline-3,6(4H, 11H)-dione] showed an IC50 [1, 3] of under 200 nM and an IC50 [2, 4] of under 20 nM.
`CC[C@@]1(O)C(=O)OCc2c1cc1n(c2=O)Cc2c-1c(=O)c1cc(F)c(CC(C)O)cc1n2C1CCCC1` (stereo partly drawn) [Example 292, (4S)-11-cyclopentyl-4-ethyl-8-fluoro-4-hydroxy-9-(2-hydroxypropyl)-1,12-dihydro-14H-pyrano[3,4:6,7]indolizino[2,1-b]quinoline-3,6,14(4H,11H)-trione] was tested, and the IC50 [1, 3] was 200 to 500 nM.
